Assay results published in patent publication US20160228575A1, “NARINGENIN COMPLEXES AND METHODS OF USE THEREOF” (THE GENERAL HOSPITAL CORPORATION, priority 2008, published 2016).

Experiments:
ApoB = ApoB secretion by JFH-1 infected Huh-7.5.1 cells (human ApoB ELISA); format: cell-based; conditions: 24 hours, brefeldin A 2.5 μg/ml
Description: HCV-infected Huh-7.5.1 cells were plated on a 6-well plate at a density of 1×10^5 cells/cm^2 and cultured overnight in standard medium. Prior to the beginning of the experiment, the cells were washed 3 times with PBS and cultured with DMEM containing 5% lipoprotein-free FBS. Oleate, Insulin, Naringenin, and Brefeldin A were added at this time as described in the text. Following 24 hours of incubation, the plate was gently agitated to release mechanically bound particles, the media was collected, filtered to remove cellular debris, and stored at −80° C. for further analysis. The attached cells were washed 3 times with PBS, harvested, pelleted and stored at −80° C. for further analysis.
Huh-7.5.1 and primary human hepatocytes secreted ApoB was detected in the media using ALerCHEK, Inc (Portland, Me.) total human ApoB ELISA kit. Media was diluted 1:10 with the specimen diluent, and the assay was carried out according to manufacturer's directions.
HCV-infected Huh-7.5.1 cells were plated T-25 tissue culture flasks at a density of 1×10^5 cells/cm^2 and cultured overnight in standard medium. Prior to silencing, the cells were washed 3 times with PBS and media was replaced with OptiMEM basal medium. SureSilencing shRNA (GFP) plasmids against human ApoB100 as well as shRNA plasmid control (500 ng/ml) were combined with lipofectamine 2000 in OptiMEM and incubated with the cells overnight. SureSilencing shRNA plasmids code for GFP which was used to sort the transfected Huh7.5.1 cells, using FACSAria (BD Biosciences) located at the Partners AIDS Research Center. Transfected cells (10% of the total population) were sorted directly into a 12-well plate and allowed to adhere overnight. Culture media was conditioned by the transfected cells for 24 hours and analyzed as described above.

HMGR = HMGR transcription by qPCR in infected Huh7.5.1 cells; format: cell-based, human; conditions: naringenin 24 hours, infected Huh-7.5.1 cells
actin = experiment: Actin mRNA level by qPCR in infected Huh7.5.1 cells; format: cell-based, human; conditions: naringenin 24 hours
Description: Virus samples collected in each experiment were filtered with a 0.45 μm filter and a volume of 100 μL for each sample was heated at 95° C. for 45 min. The reverse transcription reaction step was performed on a Mastercycler epgrdientS (Eppendorf) instrument using Omniscript and Sensiscript RT Kits (Qiagen). Real time PCR was performed on a Light Cycler LC-24 (Idaho Technology), using SuperScript™ III Platinum® CellsDirect Two-Step qRT-PCR Kits (Invitrogen) for quantitative PCR. For reverse transcription step, 2 μL of sample without RNA extraction were used. For real time PCR, 1 μL of the reverse transcription reactions was used. All reactions were performed according to the manufacturer's instructions using the primers detailed in Table 1.

In the case of `O=C1C[C@@H](c2ccc(O)cc2)Oc2cc(O)cc(O)c21` [naringenin], the “ApoB secretion (in words)” value (ApoB) was “Inhibition”, the “reduction of HMGR transcription” value (HMGR) was 57%±3% and the “actin mRNA level” value (actin) was “remained unchanged”.
